Reference: publication PMC10531346, “Structural Similarities and Overlapping Activities among Dihydroflavonol 4-Reductase, Flavanone 4-Reductase, and Anthocyanidin Reductase Offer Metabolic Flexibility in the Flavonoid Pathway” (International Journal of Molecular Sciences, 2023)
Where “and” joins values, the source holds several entries; their conditions need not be identical. Identical values can stand only once. Like-named read-outs stand apart in the source and are kept apart here.

How the values were obtained:
SbFNR2 = SbFNR2 activity assay (dihydroflavonols, flavanones, anthocyanidins); type: biochemical, Sorghum bicolor; settings: for activity of SbFNR2 against the substrate: in words; for efficiency relative to the activity of SbANR: anthocyanidin reduction
PvDFRa Q242A = PvDFRa Q242A (Panicum virgatum, UniProt A0A8T0SQV2, Q242A); experiment: Enzyme kinetic assay, PvDFRa Q242A mutant; type: biochemical; settings: for kcat: NADPH 2 mM
Method: (§1) Site-directed mutagenesis was conducted using primers generated with the QuikChange Primer Design (Agilent Santa Clara, CA USA).
(§2) Kinetic Assays of PvDFRa, SbDFR3, mutant PvDFRa, and SbFNRs: DFR was purified to the same purity as used in crystallization. Enzymatic assay followed the methodology previously reported with small changes. A solution of 0.1 M potassium phosphate at pH 7.0 was utilized, and substrate concentration was varied from 5 µM to 800 µM. The reaction was initiated with 0.05 mg enzyme in a total reaction volume of 200 µL. […] The reaction proceeded for 15 min. at 25 °C and was terminated by the addition of 600 µL 95:5 (v/v) n-butanol:HCl. […] The reactions were centrifuged for 15 min. at 14,000× g and the supernatant was used to determine product concentrations with a GENESYS™ 10S UV-Vis Spectrophotometer (Thermo Scientific, Waltham, MA, USA). The absorbances of cyanidin delphinidin and pelargonidin were measured at 550, 550, and 528 nm, respectively. The concentrations were determined based on calibrations with reference compounds (Figure S12). […] Data analysis was conducted utilizing GraphPad Prism 8.0.2 using linear regression to model the appropriate model. Error in each data point is shown utilizing the standard deviation.

PvDFRa T143S = PvDFRa T143S (Panicum virgatum, UniProt A0A8T0SQV2, T143S); experiment: Enzyme kinetic assay, PvDFRa T143S mutant; type: biochemical; settings: relative to wild-type PvDFRa
Method: as §1, §2

SbFNR1 = SbFNR1 (Sorghum bicolor, UniProt C5YGL7); experiment: SbFNR1 activity assay (dihydroflavonols, flavanones, anthocyanidins); type: biochemical; settings: for activity of SbFNR1 against the substrate: in words; for product yield compared to PvDFRa and SbDFR3: flavanones, long incubation
PvDFRa [1] = biological target: T1, PvDFRa (Panicum virgatum, UniProt A0A8T0SQV2); experiment: Isothermal titration calorimetry, PvDFRa; type: binding; settings: for ∆H / ∆S: ITC, 298 K
Method: In order to obtain thermodynamic parameters for the association, isothermal titration calorimetry (ITC) for PvDFRa was performed (Figure S8, Table 2).
Isothermal Titration Calorimetry: Purified PvDFR was dialyzed to a buffer containing 50 mM Bis-Tris, 50 mM Tricine (pH 6.5), 200 mM NaCl and 2.5% (v/v) glycerol. Substrates were dissolved in the same buffer used for enzyme dialysis. Analysis was conducted utilizing a Microcal ITC 200 (Malvern). […] A total of 22 injections were made, each with a volume of 2 uL. Data analysis was conducted utilizing Origin Software 7 and modeled to the appropriate nonlinear regression.

SbANR = SbANR activity assay (dihydroflavonols, flavanones, anthocyanidins); type: biochemical, Sorghum bicolor; settings: in words
SbDFR3 [2] = biological target: T2, SbDFR3 (Sorghum bicolor, UniProt C5XVF8); experiment: Enzyme kinetic assay, SbDFR3; settings: NADPH 2 mM
Method: as §2

PvDFRa WT = PvDFRa WT (Panicum virgatum, UniProt A0A8T0SQV2); experiment: Enzyme kinetic assay, wild-type PvDFRa; type: biochemical; settings: for substrate inhibition at higher substrate concentrations: KI much greater than Km, could not be quantified
Method: as §2

PvDFRa [3] = biological target: T1, PvDFRa; experiment: PvDFRa activity against anthocyanidins (ANR activity); type: biochemical; settings: anthocyanidin reduction
Method: (§3) To measure any overlapping specificity among FNR, DFR, and ANR for anthocyanidins, their activity against cyanidin, pelargonidin, and delphinidin were assayed.
(§4) LC-MS was used to analyze the various flavonoids using a Waters Xevo TQ-MS mass spectrometer interfaced with a Waters Acquity UPLC. […] The chromatographic conditions used were based on. The mobile phase used was a binary gradient of water with 0.1% (v/v) formic acid (Solvent A) and methanol with 0.1% formic acid (Solvent B). The solvent flow rate was 0.2 mL min^-1. and the initial solvent composition was 20% B/80% A and was constant for the first minute following sample injection. Gradient elution was accomplished by increasing the ratio of solvent B to solvent A from 20:80 to 65:35 over 10 min. using a linear gradient, and then increased to 100:0 over the next 4 min. The composition was maintained at 100% B for 5 min., returned to 80%A/20%B over the next 3 min., and held at that ratio for the next 3 min. […]
(§5) Appropriate daughter ions to be used for multiple reaction monitoring (MRM) of (-)-epicatechin were identified by infusing standard and recording spectra. The optimum cone voltage and collision energy of epicatechin were also determined in these infusion experiments. […]

SbDFR3 [4] = biological target: T2, SbDFR3; experiment: SbDFR3 activity against anthocyanidins (ANR activity); type: biochemical; settings: anthocyanidin reduction
Method: as §3, §4, §5

SMILES	activity of SbFNR2 against the substrate (SbFNR2)	kcat (PvDFRa Q242A) [s⁻¹]	activity of SbFNR1 against the substrate (SbFNR1)	Kd (PvDFRa [1]) [µM]	∆H (PvDFRa [1]) [kcal/mol]	∆S (PvDFRa [1]) [Cal mol^−1 K^−1]	activity of SbANR against the substrate (SbANR)	kcat (SbDFR3 [2])	substrate inhibition at higher substrate concentrations (PvDFRa WT)	also measured
O=C1c2c(O)cc(O)cc2O[C@H](c2ccc(O)cc2)[C@H]1O [DHK, dihydrokaempferol]	no significant activity	0.007835	no significant activity	26.4 ± 2.26	-6.19 ± 5.54	0.854	no significant activity	0.0101 s⁻¹ and 0.0101 ± 0.00852 s⁻¹	substrate inhibition was observed	higher catalytic efficiency of Q242A mutant (PvDFRa Q242A; relative to wild-type PvDFRa): 1.7 fold; increased catalytic efficiency of T143S mutant (PvDFRa T143S): 1.09 fold; Km (SbDFR3 [2]): 118 ± 22.6 µM
O=C1c2c(O)cc(O)cc2O[C@H](c2cc(O)c(O)c(O)c2)[C@H]1O [DHM, dihydromyricetin]	no significant activity	0.03788	no significant activity	21.2 ± 3.26	-9.10 ± 2.45	−9.14	no significant activity	0.07733 s⁻¹	substrate inhibition was observed	
O=C1c2c(O)cc(O)cc2O[C@H](c2ccc(O)c(O)c2)[C@H]1O [DHQ, dihydroquercetin]	no significant activity	0.04285	no significant activity	16.9 ± 4.35	-10.77 ± 0.18	−13.7	no significant activity	0.06325 s⁻¹	substrate inhibition was observed	increased catalytic efficiency of T143S mutant (PvDFRa T143S): 3.53 fold
O=C1C[C@@H](c2ccc(O)c(O)c2)Oc2cc(O)cc(O)c21 [Eriodictyol, eriodictyol]	did not display any activity			64.9 ± 11.8	-6.23 ± 0.28	−1.74	did not display any activity	0.00206 ± 0.000183 s⁻¹	substrate inhibition occurred	product yield compared to PvDFRa and SbDFR3 (SbFNR1): ~ 3%; Km (SbDFR3 [2]): 40.7 ± 31.9 µM; Km (SbDFR3 [2]; read-out: Km): 25.2 µM; kcat for flavanones, given for PvDFRa (PvDFRa WT; NADPH 2 mM): 0.00206 s⁻¹; Km (PvDFRa WT; NADPH 2 mM, pH 7.0, 25 °C): 246 ± 224 µM; kcat (PvDFRa WT; NADPH 2 mM, pH 7.0, 25 °C): 0.01414 ± 0.00932 s⁻¹; kcat (PvDFRa WT; NADPH 2 mM, pH 7.0, 25 °C, listed as eriodictyol): 0.01414 s⁻¹
O=C1C[C@@H](c2ccc(O)cc2)Oc2cc(O)cc(O)c21 [Naringenin, naringenin]	did not display any activity			177 ± 25.3	-4.82 ± 0.39	0.986	did not display any activity		substrate inhibition occurred	product yield compared to PvDFRa and SbDFR3 (SbFNR1): ~ 3%; kcat for flavanones, given for PvDFRa (PvDFRa WT; NADPH 2 mM): 0.03473 s⁻¹; kcat (PvDFRa WT; NADPH 2 mM, pH 7.0, 25 °C): 0.05915 s⁻¹
Oc1cc(O)c2cc(O)c(-c3ccc(O)c(O)c3)[o+]c2c1 [cyanidin]										efficiency relative to the activity of SbANR (SbFNR2): 7.4%; activity as % of the activity of SbANR (PvDFRa [3]): 0.5%; activity as % of the activity of SbANR (SbDFR3 [4]): 0.9%; efficiency relative to the activity of SbANR (SbFNR1; anthocyanidin reduction): 11.9%
Oc1cc(O)c2cc(O)c(-c3cc(O)c(O)c(O)c3)[o+]c2c1 [delphinidin]	neither SbFNR1 nor SbFNR2 displayed any activity		neither SbFNR1 nor SbFNR2 displayed any activity				showed activity			
Oc1ccc([C@H]2Oc3cc(O)cc(O)c3C[C@H]2O)cc1 [epiafzelchin]										efficiency relative to the activity of SbANR (SbFNR2): 43%
